Assay results reported in paper PMC12345172, “Uptake of fucosylated type I human milk oligosaccharide blocks by Bifidobacterium longum subsp. infantis” (mBio, 2025).
Like-named read-outs stand apart in the source and are kept apart here.

Key:
Blon_0883 (BiGFL-BP) [1] = molecular target: T1, Blon_0883 (BiGFL-BP) (Bifidobacterium longum, UniProt A0AAX1LHV4); experiment: isothermal titration calorimetry; format: binding; conditions: 25 °C, pH 6.5, 10 mM sodium phosphate; one-site model; free protein in solution
T1 construct: gene msmE_4; mature peptide, amino acids 24-460, signal peptide removed; N-terminal TEV-cleavable His tag cut; E. coli BL21(DE3)
T1 sequence (A0AAX1LHV4 24-445): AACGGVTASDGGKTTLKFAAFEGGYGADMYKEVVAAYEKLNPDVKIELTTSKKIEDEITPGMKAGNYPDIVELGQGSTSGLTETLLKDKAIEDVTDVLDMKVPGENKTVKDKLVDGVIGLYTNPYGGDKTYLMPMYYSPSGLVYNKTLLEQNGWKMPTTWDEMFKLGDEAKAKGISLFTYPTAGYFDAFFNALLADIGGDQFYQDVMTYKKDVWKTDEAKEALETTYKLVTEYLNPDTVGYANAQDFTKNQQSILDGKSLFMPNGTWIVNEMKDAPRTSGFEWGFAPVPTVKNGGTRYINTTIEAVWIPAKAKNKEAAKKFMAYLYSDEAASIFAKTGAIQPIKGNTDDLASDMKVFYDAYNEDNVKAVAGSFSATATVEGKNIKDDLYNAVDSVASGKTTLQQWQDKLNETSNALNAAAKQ
Description: isothermal titration calorimetry on Blon_0883 (BiGFL-BP)

Blon_0883 (BiGFL-BP) [2] = molecular target: T1, Blon_0883 (BiGFL-BP); experiment: biochemical; set-up: SPR (Biacore T100), immobilized Blon_0883 on CM5 chip, 25 °C, pH 6.5; kinetic and steady-state fits; conditions: SPR kinetic global fit; for kon: read-out: kon (×10^6 M^-1s^-1)
Procedure: (§1) Affinity of Blon_0883 to oligosaccharides was also determined using a Biacore T100 (GE Healthcare). The protein was diluted into 10 mM sodium acetate (pH 4.2) to 2.0 µM and immobilized on a CM5 sensor chip using random amine coupling kit (GE Healthcare) to a density of 3,077 response units (RU) and the sensograms were recorded at 25°C in the same buffer used for the ITC (including 150 mM NaCl and 0.005% P20 surfactant) and analyzed as described ([24]). Experiments were performed in independent duplicates in the range 3.42–2,500 nM for LNB, GNB, Lewis A triose and Blood group H antigen triose. Binding was also tested using 0.1 µM–100 mM Lac, Gal, 3FL, 3SL, DFL LNT, and di-N-acetyl-lactosamine. The mature peptide of Blon_0883 was produced and purified to electrophoretic homogeneity. The binding affinity and thermodynamics of the transport protein were analyzed using isothermal titration calorimetry (ITC) and surface plasmon resonance (SPR) (Fig. 1; Fig. S1; Table S1). Among the tested ligands, the highest affinities were measured toward LNB and GNB. The binding of both ligands was driven by favorable enthalpy, similar to other saccharide-specific SBP ([21]) (Table 1). The Lewis a (Le^a) and blood group H type 1 antigen (H1) trisaccharides were both bound with about four-fold lower affinity than the preferred LNB ligand. […] Panels A through D depict representative binding isotherms based on technical triplicates. The circles are blank and reference-corrected binding levels, and the solid lines are the fits of a one binding site model to the steady state data. Panels E and F depict the blank and reference-corrected sensograms in gray, and the green lines are the global fits of a kinetic one site binding model to the binding sensograms.

Blon_0883 (BiGFL-BP) [3] = molecular target: T1, Blon_0883 (BiGFL-BP); set-up: SPR (Biacore T100), immobilized Blon_0883 on CM5 chip, 25 °C, pH 6.5; kinetic and steady-state fits; conditions: binder
Procedure: as §1

Blon_0883 (BiGFL-BP) [4] = molecular target: T1, Blon_0883 (BiGFL-BP); experiment: surface plasmon resonance, steady state; format: binding; conditions: 25 °C, pH 6.5, 10 mM sodium phosphate, 150 mM NaCl, 0.005% P20; protein amine-coupled to CM5 chip
Description: surface plasmon resonance, steady state on Blon_0883 (BiGFL-BP)

[5] = SPR kinetic global fit, read-out: Kd Kinetics

| Compound | Kd (Blon_0883 (BiGFL-BP) [1]) | koff (Blon_0883 (BiGFL-BP) [2]) | kon (Blon_0883 (BiGFL-BP) [2]) | Kd (Blon_0883 (BiGFL-BP) [3]; [5]) | Kd (Blon_0883 (BiGFL-BP) [3]; SPR steady-state fit) | Kd (Blon_0883 (BiGFL-BP) [4]) |
| --- | --- | --- | --- | --- | --- | --- |
| CC(=O)N[C@H]1C(O)O[C@H](CO)[C@H](O)[C@@H]1O[C@@H]1O[C@H](CO)[C@H](O)[C@H](O)[C@H]1O (stereo partly drawn) [GNB, Galβ1,3GalNAc] | 169 nM | 0.04 ± 0.003 s⁻¹ | 850000 ± 4000 M⁻¹ s⁻¹ | 42 nM | 62 ± 4 nM | – |
| CC(=O)N[C@H]1C(O)O[C@H](CO)[C@@H](O)[C@@H]1O[C@@H]1O[C@H](CO)[C@H](O)[C@H](O)[C@H]1O[C@@H]1O[C@@H](C)[C@@H](O)[C@@H](O)[C@@H]1O (stereo partly drawn) [H1] | – | 0.17 ± 0.002 s⁻¹ | 4.8e+06 ± 60000 M⁻¹ s⁻¹ | 37 nM | – | 158 ± 9 nM |
| CC(=O)N[C@H]1C(O)O[C@H](CO)[C@@H](O)[C@@H]1O[C@@H]1O[C@H](CO)[C@H](O)[C@H](O)[C@H]1O (stereo partly drawn) [LNB, Galβ1,3GlcNAc] | 68.5 nM | 0.16 ± 0.003 s⁻¹ | 1.46e+07 ± 30000 M⁻¹ s⁻¹ | 11 nM | 32.5 ± 3.2 nM | – |
| CC(=O)N[C@H]1C(O)O[C@H](CO)[C@@H](O[C@@H]2O[C@@H](C)[C@@H](O)[C@@H](O)[C@@H]2O)[C@@H]1O[C@@H]1O[C@H](CO)[C@H](O)[C@H](O)[C@H]1O (stereo partly drawn) [Le^a] | – | 0.14 ± 0.0005 s⁻¹ | 3e+06 ± 10000 M⁻¹ s⁻¹ | 49 nM | – | 146 ± 12 nM |
